According to patent publication US20230087994A1, “TARGETED BIFUNCTIONAL DEGRADERS” (YALE UNIVERSITY, priority 2019, published 2023):

Columns and labels:
[1] = tested on: PC3 cells; test: Human prostate cancer PC3 tumor growth in mice; format: in vivo
Procedure: The ability of MIF-GN3 to mediate the depletion of MIF in a therapeutically relevant disease model was investigated. […] An experiment was conducted to determine whether the bifunctional molecule MIF-GN3 can deplete sufficient human MIF from serum to slow PC3 tumor growth. Mice were injected with an aliquot of PC3 cells, and the size of the resultant tumors as well as the levels of human MIF in serum were monitored over five weeks. […] Five weeks after the initial PC3 cell injection, the first of the mice reached maximal tumor size ([…]) and was sacrificed (FIG. 138). […] The decrease in human MIF levels mediated by MIF-GN3 is consistent with a mechanism of action in which MIF-GN3 mediates the depletion and degradation of circulating MIF protein. While the α-MIF antibody would not necessarily be expected to decrease the levels of human MIF, it is possible that the antibody mediates MIF neutralization in a manner which masks its signal as determined by ELISA. Alternatively, the α-MIF antibody may mediate depletion or degradation of huMIF by some endocytic mechanism. Another possible explanation is that the α-MIF antibody decrease serum levels of active human MIF to such an extent at early time points that PC3 cells proliferate much more slowly, and therefore fewer cells are actively secreting human MIF.
Mice were sacrificed when their tumor volumes reached 1000 mm^3. […] At this same time point, less than 25% of the mice in any other arm had survived.

[2] = target: T1, human MIF (Homo sapiens, UniProt P14174); test: Depletion of human MIF from cell culture supernatant (sandwich ELISA); format: cell-based; parameters: host or cells: exogenous protein added to cell culture; settings: for removal of MIF from supernatant: after 48 hours
T1 sequence (P14174 2-115 limits assumed): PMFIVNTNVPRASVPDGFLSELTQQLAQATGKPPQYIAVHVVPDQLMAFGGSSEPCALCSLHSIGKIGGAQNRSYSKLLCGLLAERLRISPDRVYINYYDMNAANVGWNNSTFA
Procedure: The ability of bifunctional MIF-binding molecules to mediate the depletion of human MIF from cell culture was investigated. In these assays, human MIF was present at a concentration of 100 nM, and a sandwich ELISA assay was utilized to measure the concentration of human MIF remaining in the cell culture supernatant. The closely related bifunctional molecules MIF-GN3, MIF-PEG2-GN3, and MIF-PEG4-GN3 were used, as well as the structurally dissimilar molecule MIF-NVS-PEG3-GN3. […] Based on the ease of its synthesis and its efficacy in this experiment, MIF-GN3 was utilized for further studies. It was next investigated whether the MIF inhibitor 3w mediates MIF depletion from cell culture supernatant. […] When cells were treated with 3w, no depletion of exogenous MIF protein was observed after 24 hours (FIG. 128B).

[3] = Pharmacokinetics of MIF-GN3 in male nude mice; format: in vivo; settings: one mpk dose
Source text: The ability of MIF-GN3 to mediate the depletion of injected human MIF from serum in mice was studied. First, the pharmacokinetics of the bifunctional molecule were investigated.

[4] = tested on: HepG2 cells; test: Subcellular localization of endocytosed MIF protein in HepG2 cells; format: cell-based, human; settings: 12 hours; FIG. 133
Procedure: In order to investigate the subcellular localization of endocytosed MIF protein, colocalization studies were performed in HepG2 cells. After 12 hours of MIF-GN mediated endocytosis, several punctae displaying MIF-derived fluorescence were present in each cell.

[5] = target: T2, mouse MIF (Mus musculus, UniProt P34884); test: Depletion of endogenous mouse MIF in vivo; parameters: species or system mice; settings: 10 mpk, single dose; FIG. 137
T2 construct: mediate the depletion of endogenous mouse MIF in vivo; from tissue; host or cells: mouse serum (in vivo)
Procedure: (§1) In order to confirm that mice injected with one or ten mpk MIF-GN3 had received the injection, and that the observed stability of MIF concentrations in MIF-GN3 treated mice was not the result of injection error, 200 μg of α-DNP antibody was coinjected with the MIF protein in this experiment. […] An investigation of the ability of MIF-GN3 to mediate the depletion of endogenous mouse MIF in vivo was next undertaken. Mice were treated with either PBS or 10 mpk of MIF-GN3. […] One possible explanation for this finding is that MIF protein may be synthesized rapidly, and any increase in degradation mediated by MIF-GN3 may not be of a large enough magnitude to impact the protein's level in serum.

[6] = target: T1, human MIF; test: Depletion of injected recombinant human MIF from serum in mice; format: in vivo; parameters: injected into mice; settings: for depletion of human MIF protein from serum: 10 mpk, 30 minutes, FIG. 135
Procedure: In vivo human MIF depletion experiments were undertaken to determine whether MIF-GN3 can mediate the depletion of injected recombinant human MIF from serum in mice. Mice were injected with five μg of the human MIF protein. In this experiment, one group of mice was also injected with a single 10 mpk dose of MIF-GN3 along with human MIF protein. It was observed that after four hours, the average level of human MIF in serum in the PBS-treated mice was 1.76 ng/mL (FIG. 134). In mice treated with 10 mpk MIF-GN3, however, the concentration of human MIF in serum was 0.68 ng/mL. One day after the initial injection, human MIF levels had reached background levels for both conditions. […] It was hypothesized that, due to the short half-life of human MIF in serum, investigating human MIF levels at earlier time points may be more informative.
Next, an experiment was performed to determine whether MIF-GN3 could enhance MIF clearance at time points earlier than four hours. Mice were coinjected with recombinant human MIF and 10 mpk MIF-GN3 via either i.p. or i.v. routes. For the PBS control arms, human MIF was injected with PBS. It was observed that in the absence of MIF-GN3, there was a spike in huMIF levels in circulation after 30 minutes (FIG. 135). In the presence of MIF-GN3, however, levels of MIF protein remained low at 30 minutes and no spike in its concentration was observed. By two hours, the levels of human MIF in circulation decreased to background levels. […] In a further experiment, whether an inhibitor of the MIF protein (3w) is able to mediate the protein's depletion from serum was determined. A bifunctional molecule that mediates the depletion of α-DNP antibody from serum was also assayed as a negative control. Neither of these molecules was expected to mediate the formation of a ternary complex between human MIF protein and ASGPR.
as §1

[7] = tested on: HepG2 cells; test: MIF-GN3-mediated endocytosis of fluorescently labeled human MIF by HepG2 cells
Procedure: Human MIF protein was fluorescently labeled with Alexa 488 NHS ester, then incubated with HepG2 cells in the presence of varying levels of MIF-GN3.
Next, inhibitors of various endocytic pathways were utilized to determine if MIF-GN3 mediates MIF endocytosis in a manner consistent with ASGPR (FIG. 132).

## CC(=O)N[C@H]1[C@H](OCCOCCOCCNC(=O)CCOCC(COCCC(=O)NCCOCCOCCO[C@@H]2O[C@H](CO)[C@H](O)[C@H](O)[C@H]2NC(C)=O)(COCCC(=O)NCCOCCOCCO[C@@H]2O[C@H](CO)[C@H](O)[C@H](O)[C@H]2NC(C)=O)NC(=O)CNC(=O)CCCOc2ccc3nc(-c4cn(-c5ccc(O)c(F)c5)nn4)ccc3c2)O[C@H](CO)[C@H](O)[C@@H]1O [MIF-GN3]
[1]; 1 mpk
  PC3 tumor growth: delay in tumor growth
[1]; 10 mpk
  PC3 tumor growth: not found to decrease tumor growth
[1]; MIF-GN3 at 1 mpk, FIG. 139
  human MIF protein in serum: decreased levels of human MIF protein
[1]; eight weeks after the initial PC3 cell injection, MIF-GN3 at 1 mpk, FIG. 140
  survival: 80%
[2]; 200 nM
  removal of MIF from supernatant: 56.0%
[2]; 1 μM
  removal of MIF from supernatant: 67.0%
[2]; human MIF 100 nM, 24 hours, FIG. 128A
  depletion of human MIF from cell culture supernatant: effective at mediating the depletion of human MIF
[3]
  half-life in serum: 25.8 min
  maximum plasma concentration: 586.87 ng/mL
  time of maximum plasma concentration: 15 min
[4]
  colocalization of MIF protein with LAMP2: near-complete colocalization
  overlap of MIF punctae with EEA1: did not overlap
[5]
  mouse MIF concentrations in serum: No significant decrease
[6]; i.p.
  depletion of human MIF protein from serum: significant depletion
[6]; i.v.
  depletion of human MIF protein from serum: significant depletion
[6]; four hours, single 10 mpk dose, five μg human MIF (PBS 1.76 ng/mL; difference not significant), FIG. 134
  concentration of human MIF in serum: 0.68 ng/mL
[6]; one mpk, 40 and 60 minute time points, FIG. 136
  human MIF levels in serum: significant decrease
[6]; ten mpk, 40 and 60 minutes, FIG. 136
  concentration of human MIF in serum: significant decreses
[7]; 10 nM MIF protein, 200 nM MIF-GN3, FIG. 131
  fluorescence relative to cells not treated with bifunctional molecule: 4 fold
[7]; 5.00 μM MIF-GN3, 100 nM MIF protein
  MIF uptake compared to lower concentrations: slight decrease in MIF uptake
[7]; highest concentration investigated, FIG. 130
  MIF-GN3 concentration of maximal intracellular fluorescence: 1.0 µM
